What was measured:
[1] = test system: Enterococcus faecalis; experiment: Suitability of colorimetric detection compounds for bioelectrochemical detection of Enterococcus faecalis; assay type: cell-based; conditions: compound used for colorimetric detection of Enterococcus faecalis
Description: Bioelectroanalytical techniques are emerging as ways to enumerate and scrutinize microbial systems. But there is still need in the art for technologies specifically designed for bioelectroanalytical detection of FIB. […] The latter, in particular, makes them unsuitable in self-powering systems.

[2] = test system: A. hydrophila; experiment: Electrochemical detection of A. hydrophila in ECs; assay type: cell-based, Aeromonas hydrophila; conditions: both 30° C. and 37° C. (FIG. 5)
Experimental: (§1) Escherichia coli strain BL21 was selected to represent a FIB of human origin that contains the uidA and lacZ genes, i.e. a FC, whereas Aeromonas hydrophila (DSM 6173) is an environmental organism that has the lacZ gene but which is not considered a coliform. All organisms were cultured aerobically for 20 h. E. coli was grown in Luria Bertani (Lennox) medium at 37° C., and A. hydrophile at 30° C. in tryptone soy broth (TSB) in a shaking incubator.
(§2) Conical ECs with a working volume of 10 mL were used with a customized Teflon cap to accommodate a three electrode configuration along with gas fittings to maintain a moist anaerobic atmosphere. Carbon felt working electrodes (1×1×0.318 cm) (VWR, Singapore) were kept for 24 h in 1 M HCl and stored in deionized (DI) water before use. The electrodes were connected to titanium wire (0.25 mmØ, Sigma-Aldrich) using a nylon nut and bolt. […]
(§3) Following reporter supplement and inoculation with the test microorganism, the ECs were connected to a multichannel potentiostat (Biologic, France) and cyclic voltammetry (CV) and differential pulse voltammetry (DPV) were performed immediately. Data acquisition was recorded by EC-Lab software (Biologic, France). […] A detection event was calculated as 4 times the standard deviation of the baseline and detection times are expressed as the mean of triplicate analyses unless stated otherwise. […]

[3] = test system: mixed culture of E. coli and A. hydrophila; experiment: Detection time of mixed culture of A. hydrophila and E. coli in ECs; assay type: cell-based, Escherichia coli; Aeromonas hydrophila; conditions: 30° C., E. coli constant 5×10^5 CFU mL^−1
Experimental: as §1
(§4) The resulting overnight cultures were diluted in sterile modified M9 medium (Na2HPO4.7H2O (126 mM); KH2PO4 (110 mM); NH4Cl (93 mM); NaCl (42 mM); 1 mL/L vitamin stock solution; tryptone 12.5 g/L; HEPES: 6 g/L; and macro nutrients). The carbon source was either D-galacturonic acid or D-glucuronic acid (3.75 g/L) to achieve a final inoculum density in the range of 1.0×10^0, 5.0×10^0, 5.0×10^1, 5.0×10^2, 5.0×10^3, 5.0×10^4, and 5.0×10^5 CFU mL^−1 in both electrochemical system and the bioelectrochemical system.
as §2, with “bolt. A coiled titanium wire was used as counter electrode and an Ag/AgCl reference electrode (78 mm, 6 mm Outer Ø, Biologic, France) was connected using a 1 M KCl in 1.5% agar salt bridge.” for “bolt.”
as §3

[4] = test system: Escherichia coli strain BL21; experiment: Chronoamperometric detection of E. coli with electrochemically active reporters in three-electrode electrochemical systems (ECs); assay type: cell-based; conditions: for Detection time (±std dev): chronoamperometry in ECs, reporter 50 μM
Experimental: Resorufin (TCI-Europe), 2-hydroxy-1,4-naphthoquinone (2H14NQ) (TCI-Europe), 5-hydroxy-1,4-naphthoquinone (5H14NQ) (TCI-Europe) and 5,8-dihydroxy-1,4-naphthoquinone (58H14NQ) (Sigma-Aldrich) were obtained commercially and added to M9 medium in their unconjugated form to achieve a working concentration of 50 μM. Resorufin glycoconjugates (resorufin-β-d-galactopyranoside and resorufin-β-d-glucopyranoside) were obtained commercially (Sigma-Aldrich), whereas 2-hydroxy-1,4-naphthoquinone-β-d-galactopyranoside (2H14NQGal) and 2-hydroxy-1,4-naphthoquinone-β-d-glucopyranoside (2H14NQG1u) were specifically synthesized by Sussex Research Ltd. All reporters were added to a final concentration of 50 μM. Stock concentrations (1.0×10^−3 M) of 2H14NQ and 5H14NQ were prepared by first dissolving in 10 μL of 2 M NaOH and then making up to volume in Type II water (Veolia) whereas 58H14NQ (1.0×10^−3 M) was prepared in 1:1 DMSO:Type II water aliquots. Both stock solutions were stored at −20° C. until needed. Conjugated reporters were maintained as 1 mM stock solutions in Type II water and stored at 5° C.
as §1, §4
Conical ECs with a working volume of 10 mL were used with a customized Teflon cap to accommodate a three electrode configuration along with gas fittings to maintain a moist anaerobic atmosphere. Carbon felt working electrodes (1×1×0.318 cm) (VWR, Singapore) were kept for 24 h in 1 M HCl and stored in deionized (DI) water before use. The electrodes were connected to titanium wire (0.25 mmØ, Sigma-Aldrich) using a nylon nut and bolt. A coiled titanium wire was used as counter electrode and an Ag/AgCl reference electrode (78 mm, 6 mm Outer Ø, Biologic, France) was connected using a 1 M KCl in 1.5% agar salt bridge. The assembled cell was then filled with 1 M KCl solution ending in a 4 mm glass frit (CoralPor™, Biologic, France). The entire assembly was then autoclaved (121° C. for 15 min). Nine mL of degassed modified M9 medium was added to the ECs and supplemented with a reporter to a final concentration of 5.0×10^−5 M in 10 mL working volume. The ECs were then inoculated with the targeted test organism to achieve a final working volume of 10 mL. The headspace was flushed continuously with sterile humidified N2. The ECs were operated at 30° C., 37° C. or 44.5° C. Stirring was maintained continuously with a magnetic stirrer in the dark to prevent photo-bleaching of the light sensitive mediators.
Following reporter supplement and inoculation with the test microorganism, the ECs were connected to a multichannel potentiostat (Biologic, France) and cyclic voltammetry (CV) and differential pulse voltammetry (DPV) were performed immediately. Data acquisition was recorded by EC-Lab software (Biologic, France). Chronoamperometry (CA) was applied for up to 24 h to detect redox active reporter moieties. A detection event was calculated as 4 times the standard deviation of the baseline and detection times are expressed as the mean of triplicate analyses unless stated otherwise. […]

SMILES	Suitability for bioelectrochemical detection [1]	Electrochemical detection of A. hydrophila [2]	Detection time, mixed culture ([3]; A. hydrophila 5×10^2 CFU mL^−1 (FIG. 5))	Detection time, mixed culture ([3]; A. hydrophila 5×10^5 CFU mL^−1 (FIG. 5))	Detection time (±std dev) ([4]; 30° C., inoculum 5 × 10^2 CFU mL^−1)	Detection time (±std dev) ([4]; 30° C., inoculum 5 × 10^3 CFU mL^−1)	Detection time (±std dev) ([4]; 30° C., inoculum 5 × 10^4 CFU mL^−1)	Detection time (±std dev) ([4]; 30° C., inoculum 5 × 10^5 CFU mL^−1)	Detection times for E. coli ([4]; 30° C., inoculum sizes 5×10^5-5×10^2)	Detection time (±std dev) ([4]; 37° C., inoculum 5 × 10^2 CFU mL^−1)	Detection time (±std dev) ([4]; 37° C., inoculum 5 × 10^3 CFU mL^−1)	Detection time (±std dev) ([4]; 37° C., inoculum 5 × 10^4 CFU mL^−1)	Detection time (±std dev) ([4]; 37° C., inoculum 5 × 10^5 CFU mL^−1)	Detection time ([4]; inoculum size 5×10^3 CFU mL^−1, ECs)	Detection of E. coli achieved in (time) ([4]; inoculum sizes between 5×10^5 and 5×10^3 CFU mL^−1, ECs, triplicate)
Cc1cc(=O)oc2cc(OC3O[C@H](CO)[C@@H](O)[C@H](O)[C@H]3O)ccc12 (stereo partly drawn) [4-methylumbeliferone-glucoside]	not well suited for bioelectrochemical detection	–	–	–	–	–	–	–	–	–	–	–	–	–	–
O=c1ccc2nc3ccc(O[C@@H]4O[C@H](CO)[C@H](O)[C@H](O)[C@H]4O)cc3oc-2c1 [ResGal, resorufin-β-d-galactopyranoside]	–	could be detected electrochemically	~450 min	~280 min	521(±121) minutes	372(±82) minutes	218(±31) minutes	150(±56) minutes	132 to 521 min	734(±188) minutes	477(±23) minutes	309(±55) minutes	260 (±55) minutes	~8 h	4 to 10 h

Reference: patent US10179927B2, “Electrochemical detection of microorganisms” (priority 2014, dated 2019)
